The results in this text go back to ChEMBL document CHEMBL4304764, “Identification of a RIP1 Kinase Inhibitor Clinical Candidate (GSK3145095) for the Treatment of Pancreatic Cancer” (ACS Med Chem Lett, 2019).

Series [1] is described as follows: Chromatographic hydrophobicity index, log D of the compound at pH 7.4 by RP-HPLC analysis. It is filed as physicochemical. To be noted: buffer.
The nature of series [2]: AUC (0 to infinity) in rat at 2 mg/kg, po. It counts as ADME, organism-based. Details: dose 2 mg/kg, route oral, time infinity. To be noted: in vivo.
Series [3] can be described thus: Clearance in rat at 1 mg/kg, iv. It counts as ADME, organism-based. To be noted: in vivo.
Series [4] can be described thus: Clearance in rat at 1 mg/kg, iv relative to liver blood flow. It counts as ADME, organism-based. To be noted: in vivo.
A short description of series [5]: Volume of distribution at steady state in rat at 1 mg/kg, iv. To be noted: in vivo, read-out: Vdss. It counts as ADME, organism-based.
Series [6] is described as follows: Half life in rat at 1 mg/kg, iv. It is filed as ADME, organism-based. To be noted: in vivo.
Series [7] can be described thus: Cmax in rat at […], po. It counts as ADME, organism-based. Also on record: dose 2.1 mg/kg, route oral. To be noted: in vivo.
A short description of series [8]: AUC in rat at […], po. To be noted: in vivo. It is filed as ADME, organism-based.
Series [9] in a line: Clearance in dog at 1.1 mg/kg, iv. It counts as ADME, organism-based, Canis lupus familiaris. To be noted: in vivo.
Series [10] is described as follows: Clearance in dog at 1.1 mg/kg, iv relative to liver blood flow. It counts as ADME, organism-based, Canis lupus familiaris. To be noted: in vivo.
Series [11] can be described thus: Volume of distribution at steady state in dog at 1.1 mg/kg, iv. It counts as ADME, organism-based, Canis lupus familiaris. To be noted: in vivo, read-out: Vdss.
Series [12] is described as follows: Cmax in dog at 2 mg/kg, po. It is filed as ADME, organism-based, Canis lupus familiaris. Also on record: dose 2 mg/kg, route oral. To be noted: in vivo.
Series [13] can be described thus: AUC in dog at 2 mg/kg, po. It is filed as ADME, organism-based, Canis lupus familiaris. To be noted: in vivo.
The nature of series [14]: Clearance in monkey at […], iv relative to liver blood flow. It counts as ADME, organism-based, Macaca mulatta. To be noted: rhesus monkey, in vivo.
A short description of series [15]: Half life in monkey at […], iv. It is filed as ADME, organism-based, Macaca mulatta. To be noted: rhesus monkey, in vivo.
Series [16] in a line: AUC in monkey at […], po. It counts as ADME, organism-based, Macaca mulatta. To be noted: rhesus monkey, in vivo.
Series [17] is described as follows: Metabolic stability in rat hepatocytes in presence of NADPH. It is filed as ADME, cell-based, Hepatocyte.
The nature of series [18]: Metabolic stability in monkey hepatocytes in presence of NADPH. It is filed as ADME, cell-based, Macaca mulatta, Hepatocyte. To be noted: rhesus monkey.
The nature of series [19]: Metabolic stability in human hepatocytes in presence of NADPH. It counts as ADME, cell-based, Hepatocyte.
Series [20] can be described thus: in vivo. To be noted: rat, po.
The nature of series [21]: in vivo. To be noted: dog, po, 2 mg/kg.

The logD is the decadic logarithm of the distribution of all forms, ionised or not, between an organic phase and buffer at a given pH. For `O=C(N[C@H]1COc2ccccc2NC1=O)c1cc(Cc2ccccc2)on1`, the logD in series [1] amounted to 5.1.

For orientation: AUC(0-inf) means total exposure, with the tail of the curve extrapolated. The compound `O=C(N[C@H]1COc2ccccc2NC1=O)c1n[nH]c(Cc2ccccc2)n1` had a pH-dependent lipophilicity (logD) in series [1] of 3. In addition, the AUC(0-inf) in [2] was 2500 ng·h/mL.

One may read the clearance as the volume of plasma or blood freed of the substance per unit of time. One may read the half-life as the time in which the quantity being followed falls by half. Usually Cmax stands for the maximum level reached in the sampled fluid or tissue. In general, AUC refers to the area under the concentration-time curve, a measure of exposure. What is called Tmax is the time at which the peak concentration occurs. In series [1], `O=C(N[C@H]1CCc2cc(F)cc(F)c2NC1=O)c1n[nH]c(Cc2ccccc2)n1` showed a logD of 3.4. In addition, the AUC(0-inf) in series [2] turned out to be 1100 ng·h/mL. In addition, the clearance in [3] is 27 mL/min/kg; in series [9], 9.8 mL/min/kg. The CL in [4] amounted to 35%; in series [10], 18%; in series [14], 15%. In addition, the Vd came to 1.8 L/kg in series [5] and 1.1 L/kg in series [11]. For the same compound, the half-life in series [6] is 132 min. Further, the highest concentration (Cmax) is 0.32 µg/mL in series [7] and 0.91 µg/mL in series [12]. The area under the curve (AUC) stood at 1100 ng·h/mL in series [8], 2500 ng·h/mL in series [13] and 4.4 µg·h/mL in series [16]. In addition, the t1/2 in series [15] was determined as 4.2 h. Also, the Stability result in series [17], in series [18] and in series [19] was “Stable” throughout. For the same compound, the Tmax in the series “in vivo [20]” worked out at 49.8 min; in the series “in vivo [21]” it was 45 min.

`CN1C(=O)[C@@H](NC(=O)c2n[nH]c(Cc3ccccc3)n2)CCc2cc(F)cc(F)c21` displayed a log distribution coefficient (logD) in series [1] of 4.3. The same compound displayed an area under the curve AUC(0-inf) in series [2] of 160 ng·h/mL.

For `O=C(N[C@H]1CCc2ccccc2NC1=O)c1n[nH]c(Cc2ccccc2)n1`, in series [1], the logD stood at 3.1.

With `CN1C(=O)[C@@H](NC(=O)c2n[nH]c(Cc3ccccc3)n2)CCc2ccccc21`, the logD in series [1] is recorded as 3.8. The AUC(0-inf) in [2] was 310 ng·h/mL.
